# Reference: publication PMC6325233, “A Novel Actin Binding Drug with In Vivo Efficacy” (Antimicrobial Agents and Chemotherapy, 2018)
# Legend:
# [1] = biological target: T1, rabbit skeletal muscle F-actin (Oryctolagus cuniculus, UniProt P68135); assay: Cosedimentation assay; format: binding; settings: F-actin 200 nM, Langmuir fit
# T1 construct: Purified rabbit skeletal muscle filamentous actin (catalog number AKF99); purchased Cytoskeleton, Inc. AKF99; host or cells: rabbit skeletal muscle (tissue-purified)
# Protocol: (§1) Purified rabbit skeletal muscle filamentous actin (catalog number AKF99) and G-actin (catalog number AKL95) were purchased from Cytoskeleton, Inc. Actin was reconstituted in Milli-Q water to achieve a stock concentration of 0.4 mg/ml in a buffer that consisted of 5 mM Tris-HCl (pH 8.0), 0.2 mM CaCl2, 0.2 mM ATP, 2 mM MgCl2, and 5% (wt/vol) sucrose as directed by the supplier. This solution was stored at −80°C in 50-μl aliquots until use. Immediately before use, each aliquot was thawed by placing it in a 37°C water bath for 5 min and then at room temperature. For all studies, 24 μg of F- or G-actin was used with 8 μg alkyne-OF. F-actin filaments were reacted with native occidiofungin for 15 min at room temperature at molar ratios of 1:10 (24 μg actin to 8 μg native occidiofungin) and 1:5 (24 μg actin to 4 μg native occidiofungin). As per the manufacturer’s instructions, Acti-stain 670 phalloidin (Cytoskeleton, Inc.) was used as a control in an in vitro actin filament binding study. Actin filaments treated with DMSO (solvent blank negative control) were stained and observed for comparison. […]
# The reaction buffer for F-actin (200 nM) and occidiofungin in the cosedimentation study consisted of 5 mM Tris-HCl (pH 8.0), 0.2 mM ATP, and 2 mM MgCl2. […] A TSQ Quantum access triple quadrupole mass spectrometer was used to quantify the amount of occidiofungin within each sample. […]
# C. albicans = assay: Murine model of vulvovaginal candidiasis, efficacy; format: in vivo, BALB/c mice infected with C. albicans
# Protocol: The murine model of vulvovaginal candidiasis has been reported ([59]). A variation of this method was used. Three groups of six mice were used to evaluate two concentrations of occidiofungin (100 μg and 50 μg) and vehicle control (0.3% Noble agar). Briefly, 6- to 8-week-old BALB/c mice were treated subcutaneously with 200 ng per mouse of β-estradiol 17-valerate 3 days prior to inoculation with C. albicans (day −3). A subcutaneous dose of estradiol was administered every 3 days (day 0 [D0] and D3) until the end of the experiment to induce pseudoestrus. Intravaginal inoculations of approximately 20 μl of 2.5 × 10^6 CFU/ml of C. albicans were performed on D0 of the VVC study. On the same day of inoculation (D0), another subcutaneous injection of estradiol was made. A lyophilized powder of occidiofungin containing either 100 μg or 50 μg of occidiofungin was suspended in 20 μl of warm 0.3% Noble agar before the intravaginal inoculations. Drug treatments were performed on D2, D3, and D4 of the study. On day 5 (D5), the vaginal lumen was lavaged with 100 μl of sterile PBS with a 200-µl pipette tip. Serial dilutions and total CFU per vaginal lavage were determined by plating on YPD plates containing 50 μg/ml of chloramphenicol. Body weights, signs of vaginal irritation such as swelling or bleeding, and clinical signs of discomfort (stereotypical stretching behavior) were monitored. Statistical analyses (t tests) were performed to compare the control group to the treated groups and to compare differences between treated groups. All the analyses were 2 sided, with a P value of <0.05 considered statistically significant.
# [2] = tested on: Candida parapsilosis 2006; assay: MIC susceptibility testing (caspofungin-resistant strain); format: cell-based; design: key to MIC, 50% inhibition: -: indicates absence of isolates with 50% inhibition endpoint; settings: CLSI M27-A3
# Protocol: (§2) Occidiofungin was purified from a liquid culture of Burkholderia contaminans MS14 as previously described ([21]). MIC susceptibility testing was performed according to the CLSI M27-A3 and M38-A2 standards for the susceptibility testing of yeasts and filamentous fungi, respectively. S. cerevisiae deletion mutants were obtained from the commercially available BY4741 deletion library (Thermo Scientific).
# [3] = tested on: Cryptococcus neoformans 19526; assay: as above; format: cell-based; design: key to MIC, 50% inhibition: -: indicates absence of isolates with 50% inhibition endpoint; settings: CLSI M27-A3; 72 hours
# Protocol: as §2
# [4] = tested on: rabbit skeletal muscle filamentous actin; assay: In vitro actin filament microscopy; format: biochemical; settings: 24 μg actin with 4 or 8 μg native occidiofungin (8 μg alkyne-OF), 15 min
# Protocol: as §1, with “comparison. The actin filaments were visualized on an Olympus FV1000 confocal microscope. Pulldown assays were performed using alkyne-OF with azide-biotin (Click-iT protein reaction buffer kit; Thermo Fisher Scientific), according to the manufacturer’s instructions.” for “comparison.”
substance,measurement,setting,value
occidiofungin,"saturation of binding, stoichiometry ligand : actin monomer",[1],24
same,Kd,"[1]; occidiofungin 25 to 25,600 nM, pH 8.0, room temperature, 30 min, LC-MS quantification, read-out: estimated macroscopic dissociation constant (Kd)",1000 nM
same,difference between the two treated groups,"C. albicans; 100 vs 50 µg, P = 0.33",no statistically significant difference between the two treated groups
same,reduction in fungal load,"C. albicans; intravaginal 100 and 50 µg in 0.3% Noble agar, once per day for 3 days, six mice per group, vs vehicle P < 0.001",2 -log
same,efficacious concentration lower than azole-based treatment,C. albicans; vs azole-based treatment methods,10 -fold
same,"MIC, 50% inhibition",[2]; 24 hours,2 µg/mL
same,"MIC, 100% inhibition",[2]; 24 hours,4 µg/mL
same,"MIC, 50% inhibition",[2]; 48 hours,-
same,"MIC, 100% inhibition",[2]; 48 hours,4 µg/mL
same,"MIC, 50% inhibition",[3],-
same,"MIC, 100% inhibition",[3],2 µg/mL
same,effect on F-actin morphology,[4],the morphology of F-actin changed in the presence of occidiofungin in a dose-dependent manner
same,effect on F-actin morphology,[4]; listed as native occidiofungin,a high degree of aggregation of the filaments
